In the experiment the target is ERα (Homo sapiens (Human), UniProt P03372). As to the kind of experiment: Estrogen receptor degradation activity: breast cancer cell ERα in cell western assay. The experiment is classed as cell-based. The following applies: MCF7 cells; for % Degradation At 0.3 μM: 4 hours, normalised to fulvestrant 0.1 μM and DMSO; for IC50: 4 hours post compound addition, concentration which degrades 50% of the estrogen receptor. Summed up: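 MCF7 cells in phenol-red-free medium with 5% charcoal-stripped FBS, treated 4 h with 9-point 1:5 dilutions (0.3-0.0000018 μM final). ERα measured by in-cell western (anti-ER antibody, Alexa 488), normalized to Syto-64 DNA stain; % decrease scaled DMSO to 0.1 μM fulvestrant, IC50 in nM.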
Sequence of ERα (P03372 whole entry): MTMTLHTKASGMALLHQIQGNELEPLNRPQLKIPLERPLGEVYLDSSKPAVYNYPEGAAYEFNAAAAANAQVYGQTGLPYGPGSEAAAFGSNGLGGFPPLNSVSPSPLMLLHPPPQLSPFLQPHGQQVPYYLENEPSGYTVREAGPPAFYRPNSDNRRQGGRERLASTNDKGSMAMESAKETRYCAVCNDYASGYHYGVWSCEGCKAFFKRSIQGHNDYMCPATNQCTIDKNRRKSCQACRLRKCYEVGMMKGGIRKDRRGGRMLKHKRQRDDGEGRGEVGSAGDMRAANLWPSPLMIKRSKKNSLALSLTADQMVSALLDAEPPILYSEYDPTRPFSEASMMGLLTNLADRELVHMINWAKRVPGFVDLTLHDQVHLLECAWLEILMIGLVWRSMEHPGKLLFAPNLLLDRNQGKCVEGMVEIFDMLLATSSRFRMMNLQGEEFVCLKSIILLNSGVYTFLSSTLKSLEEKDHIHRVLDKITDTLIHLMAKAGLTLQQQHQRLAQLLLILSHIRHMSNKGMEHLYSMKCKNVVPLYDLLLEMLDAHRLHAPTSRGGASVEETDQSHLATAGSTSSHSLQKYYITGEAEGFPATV

One may read the IC50 as the concentration that inhibits the measured activity by half. Low readings indicate greater potency, high ones weaker potency.

Regarding `COc1cccc(C2=C(c3ccc(C=C4CN(CCCF)C4)cc3)c3ccc(C(=O)O)cc3CCC2)c1OC` [Compound 81, 8-(2,3-dimethoxyphenyl)-9-(4-((1-(3-fluoropropyl)azetidin-3-ylidene)methyl)phenyl)-6,7-dihydro-5H-benzo[7]annulene-3-carboxylic acid], the “% Degradation At 0.3 μM” value was found to be 92% and half-maximal inhibition (IC50) required 0.7 nM.

Consider `COc1ccc(C2=C(c3ccc(C=C4CN(CCCF)C4)cc3)c3ccc(C(=O)O)cc3CCC2)cc1OC` [Compound 82, 8-(3,4-dimethoxyphenyl)-9-(4-((1-(3-fluoropropyl)azetidin-3-ylidene)methyl)phenyl)-6,7-dihydro-5H-benzo[7]annulene-3-carboxylic acid], for which the “% Degradation At 0.3 μM” value was found to be 95% and inhibition was half-maximal at 1.4 nM (IC50).

Consider `COc1cc(Cl)cc(C)c1C1=C(c2ccc(C=C3CN(CCCF)C3)cc2)c2ccc(C(=O)O)cc2CCC1` [Compound 83, 8-(4-chloro-2-methoxy-6-methylphenyl)-9-(4-((1-(3-fluoropropyl)azetidin-3-ylidene)methyl)phenyl)-6,7-dihydro-5H-benzo[7]annulene-3-carboxylic acid], for which the “% Degradation At 0.3 μM” value turned out to be 94% and the midpoint of inhibition, the IC50, lay at 0.4 nM.

Take `Cc1ccc(C(F)(F)F)c(C)c1C1=C(c2ccc(C=C3CN(CCCF)C3)cc2)c2ccc(C(=O)O)cc2CCC1` [Compound 84, 8-(2,6-dimethyl-3-(trifluoromethyl)phenyl)-9-(4-((1-(3-fluoropropyl)azetidin-3-ylidene)methyl)phenyl)-6,7-dihydro-5H-benzo[7]annulene-3-carboxylic acid]: the “% Degradation At 0.3 μM” value is recorded as 91% and the IC50 worked out at 0.6 nM.

Source of the values: US20250255848A1, “SUBSTITUTED 6,7-DIHYDRO-5H-BENZO[7]ANNULENE DERIVATIVES, PROCESSES FOR THEIR PREPARATION AND THERAPEUTIC USES THEREOF” (SANOFI, priority 2022, published 2025).
